Measurements: patent US8557847B2, “Synergistic modulation of FLT3 kinase using a FLT3 inhibitor and a farnesyl transferase inhibitor” (Janssen Pharmaceutica, N.V., priority 2005, dated 2013)
Where two headings read alike, the source gives them in different places.

Experiments:
MV4-11 tumor xenografts = conditions: for inhibition of mean tumor volume compared to vehicle-treated group: Day 11
MV-4-11 tumor xenografts = test: MV-4-11 tumor xenografts, FLT3 inhibitor Compound D administered with Tipifarnib; type: in vivo, nude mice; conditions: Compound D 25 mg/kg bid oral, Day 16
Excerpt: The starting mean tumor volume for each treatment group was approximately 250 mm3.
Dosing was continued for sixteen consecutive days.

[1] = molecular target: T1, FLT3 phosphorylation in MV4-11 tumors (Homo sapiens, UniProt P36888, INS600HVDFREYEYD); test: FLT3 phosphorylation in MV4-11 tumors, Compound D; type: in vivo, nude mice; conditions: tumors harvested 6 hours later
T1 construct: host or cells: MV4-11 human AML cells (in culture, or as xenograft tumors in nude mice)
T1 sequence (P36888 with tags, fused parts or gaps INS600HVDFREYEYD): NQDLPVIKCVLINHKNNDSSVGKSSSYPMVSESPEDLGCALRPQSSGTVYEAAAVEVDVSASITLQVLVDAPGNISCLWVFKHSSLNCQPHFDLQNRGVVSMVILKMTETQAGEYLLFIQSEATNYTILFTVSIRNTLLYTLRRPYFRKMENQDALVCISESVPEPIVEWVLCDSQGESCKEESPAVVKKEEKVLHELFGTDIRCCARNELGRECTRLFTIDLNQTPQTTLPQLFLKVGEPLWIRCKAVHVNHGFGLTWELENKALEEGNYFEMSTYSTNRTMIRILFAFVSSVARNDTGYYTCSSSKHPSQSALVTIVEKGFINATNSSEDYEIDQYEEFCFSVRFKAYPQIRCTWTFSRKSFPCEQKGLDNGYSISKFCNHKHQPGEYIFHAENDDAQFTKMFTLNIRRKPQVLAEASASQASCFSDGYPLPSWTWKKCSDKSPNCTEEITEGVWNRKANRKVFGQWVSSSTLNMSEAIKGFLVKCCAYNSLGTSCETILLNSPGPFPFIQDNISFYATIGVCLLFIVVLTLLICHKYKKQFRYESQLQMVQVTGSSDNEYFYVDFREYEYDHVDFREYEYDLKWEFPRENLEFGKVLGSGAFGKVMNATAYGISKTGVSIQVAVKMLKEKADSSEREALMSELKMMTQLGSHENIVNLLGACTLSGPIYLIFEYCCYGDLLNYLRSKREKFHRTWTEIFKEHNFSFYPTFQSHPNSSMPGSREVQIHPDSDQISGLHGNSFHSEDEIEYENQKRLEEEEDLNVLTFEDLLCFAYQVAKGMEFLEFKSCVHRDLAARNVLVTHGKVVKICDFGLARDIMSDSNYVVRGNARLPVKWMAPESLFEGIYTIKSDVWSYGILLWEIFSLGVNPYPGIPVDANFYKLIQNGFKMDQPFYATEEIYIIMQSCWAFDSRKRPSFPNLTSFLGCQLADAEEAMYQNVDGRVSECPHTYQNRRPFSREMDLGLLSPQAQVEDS
Experimental: Tumors were harvested 6 hours later and snap frozen for assessment of FLT3 phosphorylation by western blots.
Harvested tumors were frozen and processed for immunoblot analysis of FLT3 phosphorylation in the following manner: 200 mg of tumor tissue was dounce homogenized in lysis buffer (50 mM Hepes, 150 mM NaCl, 10% Glycerol, 1% Triton —X-100, 10 mM NaF, 1 mM EDTA, 1.5 mM MgCl2, 10 mM NaPyrophosphate) supplemented with phosphatase (Sigma Cat# P2850) and protease inhibitors (Sigma Cat #P8340). Insoluble debris was removed by centrifugation at 1000×g for 5 minutes at 4° C.
Immunoprecipitated FLT3 from tumor lysates were then washed four times with lysis buffer and separated by SDS-PAGE. […] Blots were then stripped and reprobed with anti-FLT3 antibody for normalization of phosphorylation signals.

MV4-11 AML cells = test: 72-hour cell proliferation assay, single agents and FTI/FLT3 inhibitor combinations, MV4-11; type: cell-based; conditions: Homo sapiens, IC50 of the FLT3 inhibitor, alone or within the labelled combination, average of three experiments
Experimental: Dose responses for the individual compounds alone were determined for each cell line using a standard 72-hour cell proliferation assay (see FIGS. 6.1-6.8). The standard chemotherapeutic agent Cytarabine was used as a control cytotoxic agent in all experiments. […] The FLT3 inhibitors, Compounds A, B, C, D, E, F G and H, individually have good potency (sub-micromolar) for the inhibition of FLT3 driven proliferation (compared to the first line cytotoxic agent Cytarabine and Tipifarnib) in cells that depend on FLT3 for growth. Each of these chemically distinct compounds alone has potential for the treatment of disorders related to FLT3, such as FLT3 positive AML. […]
To statistically evaluate the synergy of a FLT3 inhibitor and an FTI in FLT3 dependent cell lines, dosing combinations were evaluated by the method of Chou and Talalay. See Chou T C, Talalay P. (1984) “Quantitative analysis of dose-effect relationships: the combined effects of multiple drugs or enzyme inhibitors.” Adv Enzyme Regul. […] Using this method, multiple FTI and FLT3 combinations were evaluated. […]
Cell proliferation assay for MV4-11, Baf3-ITD, Baf3-FLT3 and THP-1 cells. […] Total cell growth is quantified as the difference in luminescent counts (relative light units, RLU) of cell number at Day 0 compared to total cell number at Day 3 (72 hours of growth and/or compound treatment). […]

For CN(C)CC(=O)N1CCC(c2ccc(NC(=O)c3nc(C#N)c[nH]3)c(C3=CCCCC3)c2)CC1 [Compound 38, 4-Cyano-1H-imidazole-2-carboxylic acid {2-cyclohex-1-enyl-4-[1-(2-dimethylamino-acetyl)-piperidin-4-yl]-phenyl}-amide], the “tumor growth compared to vehicle-treated control group” value (MV4-11 tumor xenografts; 10 mg/kg b.i.d. oral) was “no significant growth delay”, the final tumor weight (MV4-11 tumor xenografts; 10 mg/kg dose) was “no significant decrease” and the “tumor regression, decrease versus starting mean tumor volume on Day 1” value (MV4-11 tumor xenografts; 50 mg/kg b.i.d. oral) was 98%. For the same molecule, the “inhibition of mean tumor volume compared to vehicle-treated group” value (MV4-11 tumor xenografts; 50 mg/kg b.i.d. oral) was roughly 100%, the final tumor weight (MV4-11 tumor xenografts; 50 mg/kg dose) was “no measurable tumor mass detectable” and the “tumor regression, decrease versus starting mean tumor volume on Day 1” value (MV4-11 tumor xenografts; 100 mg/kg b.i.d. oral) was 93%. The “inhibition of mean tumor volume compared to vehicle-treated group” value (MV4-11 tumor xenografts; 100 mg/kg b.i.d. oral) was roughly 100%, the “mice with palpable, measurable tumor on study day 34” value (MV4-11 tumor xenografts; 100 mg/kg, dosing stopped on Day 12, tumor allowed to re-grow) was 6/12 and the “body weight compared to starting body weight” value (MV4-11 tumor xenografts; across all dose groups) was “no significant loss of body weight”. For the same molecule, the “inhibition of tumor volume compared to vehicle-treated control group” value (MV-4-11 tumor xenografts) was 76%, the “level of FLT3 phosphorylation in MV4-11 tumors” value ([1]; single dose 10 mg/kg po) was “partial reduction” and the “level of FLT3 phosphorylation in MV4-11 tumors” value ([1]; single dose 100 mg/kg po) was “biologically significant reduction”. The IC50 (MV4-11 AML cells) was 13.8 nM.
